Results taken from the NIST ThermoML archive (doi:10.1021/je300827f).

Experiment: xn = mol fraction of the nth substance listed
Conditions: 101 kPa, Liquid; for viscosity: Capillary tube (Ostwald / Ubbelohde) method; for mass density: Vibrating tube method

OCCOCCO [diethylene glycol] + CCCC(C)O
Conditions | mass density, 298.15 K [kg/m3] | mass density, 303.15 K [kg/m3] | mass density, 308.15 K [kg/m3] | mass density, 313.15 K [kg/m3] | viscosity, 298.15 K [mPa·s] | viscosity, 303.15 K [mPa·s] | viscosity, 308.15 K [mPa·s] | viscosity, 313.15 K [mPa·s]
x1 = 0.0811 | 827.8 | 823.5 | 818.9 | 814.6 | 3.85 | 3.17 | 2.84 | 2.47
x1 = 0.1598 | 849.9 | 845.5 | 840.8 | 836.5 | 4.44 | 3.55 | 3.29 | 2.93
x1 = 0.2399 | 872.9 | 868.4 | 863.5 | 859.2 | 5.12 | 4.05 | 3.79 | 3.44
x1 = 0.3501 | 905.1 | 900.6 | 895.7 | 891.3 | 6.37 | 5.03 | 4.58 | 4.26
x1 = 0.4398 | 931.9 | 927.5 | 922.6 | 918.2 | 7.79 | 6.17 | 5.42 | 5.08
x1 = 0.5599 | 968.7 | 964.2 | 959.5 | 955.2 | 10.37 | 8.3 | 6.9 | 6.46
x1 = 0.6501 | 997.1 | 992.8 | 988.1 | 983.9 | 12.9 | 10.35 | 8.33 | 7.74
x1 = 0.7399 | 1025.8 | 1021.7 | 1017.4 | 1013.1 | 15.92 | 12.81 | 10.08 | 9.22
x1 = 0.8499 | 1061.8 | 1058.1 | 1053.9 | 1050 | 20.26 | 16.33 | 12.72 | 11.36
x1 = 0.9399 | 1091.9 | 1088.3 | 1084.7 | 1081.1 | 24.28 | 19.56 | 15.31 | 13.35
x1 = 1 | 1112.4 | 1109.1 | 1105.6 | 1102.3 | 27.14 | 21.87 | 17.26 | 14.81

CCCCCC(C)O (configuration not stated) [2-heptanol] + OCCOCCO
Conditions | mass density, 298.15 K [kg/m3] | mass density, 303.15 K [kg/m3] | mass density, 308.15 K [kg/m3] | mass density, 313.15 K [kg/m3] | viscosity, 298.15 K [mPa·s] | viscosity, 303.15 K [mPa·s] | viscosity, 308.15 K [mPa·s] | viscosity, 313.15 K [mPa·s]
x2 = 0 | 813.2 | 809.3 | 805 | 801.1 | 5.02 | 4.15 | 3.48 | 2.85
x2 = 0.0807 | 829.4 | 825.2 | 820.9 | 817 | 5.22 | 4.45 | 3.98 | 3.04
x2 = 0.1596 | 846.1 | 841.8 | 837.5 | 833.5 | 5.27 | 4.66 | 4.23 | 3.21
x2 = 0.2397 | 864.1 | 859.8 | 855.3 | 851.2 | 5.38 | 4.89 | 4.39 | 3.42
x2 = 0.3501 | 890.9 | 886.5 | 881.9 | 877.7 | 5.94 | 5.44 | 4.7 | 3.87
x2 = 0.4398 | 914.4 | 910.1 | 905.3 | 901.2 | 6.95 | 6.21 | 5.2 | 4.45
x2 = 0.5602 | 948.9 | 944.5 | 939.8 | 935.5 | 9.32 | 7.87 | 6.43 | 5.64
x2 = 0.6501 | 977.1 | 972.8 | 968.2 | 963.9 | 11.89 | 9.69 | 7.84 | 6.89
x2 = 0.7402 | 1007.7 | 1003.6 | 999.1 | 994.9 | 15.13 | 12.04 | 9.71 | 8.46
x2 = 0.8501 | 1048.8 | 1044.9 | 1040.6 | 1036.6 | 19.86 | 15.65 | 12.54 | 10.82
x2 = 0.9397 | 1085.7 | 1082.1 | 1078.4 | 1074.6 | 24.15 | 19.2 | 15.27 | 13.1

CCCC(C)O (configuration not stated) [pentan-2-ol] + OCCOCCO
x2 = 0
Conditions | mass density [kg/m3] | viscosity [mPa·s]
298.15 K | 805.4 | 3.2
303.15 K | 801.2 | 2.8
308.15 K | 796.6 | 2.33
313.15 K | 792.5 | 1.99

CC(C)O [propan-2-ol] + OCCOCCO
x2 = 0
Conditions | mass density [kg/m3] | viscosity [mPa·s]
298.15 K | 781.1 | 2.06
303.15 K | 776.7 | 1.79
308.15 K | 771.8 | 1.56
313.15 K | 767.4 | 1.38
